Test results from PubChem BioAssay AID330 (DTP/NCI, 2004).
“And” between values parts separate entries of the source, which are not always exact repeats. Equal entries are not always repeated. Toxic doses and inconclusive results are not listed.

Test system: P388 leukemia ip, CD2F1 mice, survival T/C
Assay: NCI In Vivo Anticancer Drug Screen. Data for tumor model P388 Leukemia (intraperitoneal) in CD2F1 (CDF1) mice
Settings: endpoint: median survival time, higher = longer survival
Outline: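 Mice carrying the transplanted tumor received test compound or vehicle. Survival was recorded in each group, and the value is the treated-group measurement divided by that of the vehicle-treated control group.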

[1] = dose: 50.0 mg/kg/injection, schedule: Q01DX009 (ip), vehicle: saline with Tween-80
[2] = dose: 100.0 mg/kg/injection, schedule: Q01DX009 (ip), vehicle: saline with Tween-80

For `COC(=O)C(O)NC(N)=O` (stereo not given), the T/C [1] was 98 % of control, the T/C [2] was 94 % of control and the T/C (dose: 200.0 mg/kg/injection, schedule: Q01DX009 (ip), vehicle: saline with Tween-80) was 89 % of control.
`COc1cc2cc3c4cc(OC)c(OC)cc4cc[n+]3c(C)c2cc1OC` (tested in a mixture with another compound) was tested, and the T/C (dose: 12.5 mg/kg/injection, schedule: Q01DX009 (ip), vehicle: water) was 154 % of control, the T/C (dose: 16.0 mg/kg/injection, schedule: Q01DX009 (ip), vehicle: water) was 106 % of control and the T/C (dose: 16.0 mg/kg/injection, schedule: Q01DX009 (sc), vehicle: water) was 108 % of control. For the same molecule, the T/C (dose: 25.0 mg/kg/injection, schedule: Q01DX009 (ip), vehicle: water) was 158 % of control and 163 % of control and 172 % of control, the T/C (dose: 25.9 mg/kg/injection, schedule: Q04DX003 (ip), vehicle: water) was 118 % of control and the T/C (dose: 32.0 mg/kg/injection, schedule: Q01DX009 (ip), vehicle: water) was 105 % of control. The T/C (dose: 32.0 mg/kg/injection, schedule: Q01DX009 (sc), vehicle: water) was 118 % of control, the T/C (dose: 43.2 mg/kg/injection, schedule: Q04DX003 (ip), vehicle: water) was 123 % of control and the T/C (dose: 50.0 mg/kg/injection, schedule: Q01DX009 (ip), vehicle: saline) was 191 % of control. For the same molecule, the T/C (dose: 50.0 mg/kg/injection, schedule: Q01DX009 (ip), vehicle: water) was 200 % of control, the T/C (dose: 50.0 mg/kg/injection, schedule: Q04DX003 (ip), vehicle: water) was 152 % of control and 171 % of control and the T/C (dose: 64.0 mg/kg/injection, schedule: Q01DX009 (sc), vehicle: water) was 123 % of control. For the same molecule, the T/C (dose: 100.0 mg/kg/injection, schedule: Q01DX009 (ip), vehicle: saline) was 90 % of control, the T/C (dose: 100.0 mg/kg/injection, schedule: Q01DX009 (ip), vehicle: water) was 200 % of control and the T/C (dose: 100.0 mg/kg/injection, schedule: Q04DX003 (ip), vehicle: saline) was 150 % of control. The T/C (dose: 100.0 mg/kg/injection, schedule: Q04DX003 (ip), vehicle: water) was 158 % of control and 162 % of control and 187 % of control, the T/C (dose: 128.0 mg/kg/injection, schedule: Q01DX009 (ip), vehicle: water) was 118 % of control and the T/C (dose: 128.0 mg/kg/injection, schedule: Q01DX009 (sc), vehicle: water) was 115 % of control. The T/C (dose: 200.0 mg/kg/injection, schedule: Q04DX003 (ip), vehicle: saline with Tween-80) was 183 % of control, the T/C (dose: 200.0 mg/kg/injection, schedule: Q04DX003 (ip), vehicle: saline) was 184 % of control and the T/C (dose: 256.0 mg/kg/injection, schedule: Q01DX009 (ip), vehicle: water) was 105 % of control. For the same molecule, the T/C (dose: 512.0 mg/kg/injection, schedule: Q01DX009 (ip), vehicle: water) was 89 % of control.
With `COc1cc(CC(C)N)ccc1O` (stereo not given) the T/C (dose: 12.5 mg/kg/injection, schedule: Q01DX009 (ip), vehicle: saline with Tween-80) was 100 % of control, the T/C (dose: 25.0 mg/kg/injection, schedule: Q01DX009 (ip), vehicle: saline with Tween-80) was 99 % of control and the T/C [1] was 104 % of control. The T/C [2] was 95 % of control.
With `Cc1cc(N/N=C/c2ccc(Cl)cc2)c2cc3c(cc2n1)OCO3` the T/C (dose: 12.5 mg/kg/injection, schedule: Q01DX005 (ip), vehicle: Klucel (hydroxypropylcellulose) (HPC)) was 98 % of control, the T/C (dose: 25.0 mg/kg/injection, schedule: Q01DX005 (ip), vehicle: Klucel (hydroxypropylcellulose) (HPC)) was 103 % of control and the T/C (dose: 50.0 mg/kg/injection, schedule: Q01DX005 (ip), vehicle: Klucel (hydroxypropylcellulose) (HPC)) was 102 % of control and 95 % of control.
For `COc1cc2c(cc1C)C1=C(C)C(=O)OC1[C@@H](O)[C@@H]2C` (stereo not given in full), the T/C (dose: 2.25 mg/kg/injection, schedule: Q01DX005 (ip), vehicle: Klucel (hydroxypropylcellulose) (HPC)) was 104 % of control, the T/C (dose: 4.5 mg/kg/injection, schedule: Q01DX005 (ip), vehicle: Klucel (hydroxypropylcellulose) (HPC)) was 101 % of control and the T/C (dose: 9.0 mg/kg/injection, schedule: Q01DX005 (ip), vehicle: Klucel (hydroxypropylcellulose) (HPC)) was 101 % of control. The T/C (dose: 18.0 mg/kg/injection, schedule: Q01DX005 (ip), vehicle: Klucel (hydroxypropylcellulose) (HPC)) was 94 % of control.
For `CC1=CC(=O)C(O)C2(C)C1CC1OC(=O)C(O)C3(O)C4(C)OCC13C2C(O)C4O` (stereo not given), the T/C (dose: 0.19 mg/kg/injection, schedule: Q01DX009 (ip), vehicle: saline + alcohol) was 102 % of control, the T/C (dose: 0.38 mg/kg/injection, schedule: Q01DX009 (ip), vehicle: saline + alcohol) was 105 % of control and the T/C (dose: 0.75 mg/kg/injection, schedule: Q01DX009 (ip), vehicle: saline + alcohol) was 119 % of control. The T/C (dose: 1.5 mg/kg/injection, schedule: Q01DX009 (ip), vehicle: saline + alcohol) was 105 % of control and 112 % of control.
